The text below walks through data of patent US7871978B2, “Bone tropic peptides” (University of Virginia Patent Foundation, priority 2004, dated 2011).

“Also recorded” adds a separate entry of the source.

Experiment [1] deals with bone and marrow tissue sections (mouse femur, rib). Nature of the experiment: Biotinylated peptide binding to bone/marrow tissue sections, Avidin-FITC fluorescence. On the set-up: key to Localization of peptide binding: Bone/Marrow (tissue sections): ✓: Check marks indicate positive binding observed with FITC; −: a dash indicates a negative result. As to conditions: for Localization of peptide binding: Bone/Marrow (tissue sections): FITC; for Binding to rib and long bone growth plate sections: biotinylated peptides, 1/50,000 dilution of Avidin-FITC. Put shortly: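 Cryosections (10 μm) of EDTA-decalcified femurs from 4-week-old mice were avidin/biotin-blocked, incubated 1 h at room temperature with 10 mM biotinylated peptide (PBS as negative control), then overnight at 4 °C with Avidin-FITC (1:50,000). Binding was visualized by fluorescence microscopy with a 535 nm fluorescein filter.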

Experiment [2] relates to bovine aortic endothelial cells. Nature of the experiment: Effect of peptides on adherent bovine aortic endothelial cells on fibronectin or collagen. As to conditions: 0.1M biotinylated peptide, 1 hour; cells adhered four hours on fibronectin or collagen. Format: cell-based. As for the experimental part:
Peptides from the phage display project were added to bovine aortic endothelial cells in culture. The endothelial cells had adhered to a surface coated with collagen or with fibronectin.
Experiment 1: Bovine aortic endothelial cells were plated on glass slides that were coated either fibronectin or collagen. The cell density was 5,000 cells/well. After the cells adhered for four hours, 0.1M of biotinylated peptide was added to each well. The following peptides were used: L1, L2, L5, L6, L7, L12, L13, L14, L19, R1, R3, and R8.
To perform this experiment, the media was removed and the cells were rinsed with 1×PBS plus 1% BSA three times. Peptides were diluted in 1×PBS plus 1% BSA, added to cells and incubated for 1 hour. The cells were rinsed three times with 1% BSA in PBS, and fixed with 2% parafomaldehyde. Aldehyde groups were blocked with 0.2 M HCl-glycine in PBS, the cells were rinsed three times with 1% BSA in PBS and ExtrAvidin-FITC (1:200 dilution) was added and incubated overnight at 4° C. The cells were rinsed three times with 1% BSA in PBS. The chambers and the gasket were removed from each slide, Vectashield was added, covered and viewed on a Nikon microscope. Images were acquired using a Coolsnap digital camera and Metavue software. […]
Experiment 3: The cells were adherent for about 6 hours and peptides at various concentrations were added to the cells. The concentrations of each of the peptides used in this experiment were: 0.1M, 0.01M, 0.001M and 0.0001M biotinylated peptide. The following peptides were tested: L1, L5, L6, L7, L13, L14, R1, R3, R8, DIP1 and PBS control (SEQ ID NOs:1, 3, 4, 5, 8, 9, 11, 13, 14, and 29).

The subject of another experiment is bone and bone marrow. Nature of the experiment: In vivo biopanning with 12-mer peptide phage display library. As to conditions: for PERCENT FREQUENCY: phage eluted from bone and bone marrow; for PHAGE SEQUENCE FREQUENCY (number of times the sequence was found in a group of plaques): phage eluted from bone and bone marrow after repeated rounds. On the set-up: species or system BALB/c mice. The method in brief: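 BALB/c mice (8 weeks) received 3.4×10^10 pfu of a 12-mer peptide phage library (pIII fusion, GGGS spacer) by intracardiac injection and were euthanized after 5 min. Bound phage eluted from bone and bone marrow was titered, amplified and re-injected at the same dose. Peptide frequency was compared with liver, kidney, lung, spleen and brain; sequences identified by phage DNA sequencing.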

In experiment [3] the test system is bovine aortic endothelial cells (BAEC). Nature of the experiment: Peptide binding to BAEC in culture (Avidin-FITC). The arrangement: key: ✓: Check marks indicate positive binding observed with FITC; −: a dash indicates a negative result. As for the experimental part:
For localization of peptide binding to cells and tissue sections, biotinylated peptides were synthesized. Fluorescein-isothiocyanate (FITC) labeled Avidin was used to localize the peptides on cells in culture and in tissue sections in vitro by epiluminescence microscopy. In addition, the biotinylated peptides were detected at concentrations as low as 1 μM in slot blots.
Bone marrow cells isolated from mouse femur were lifted with ethylenediaminetetraacetic acid (EDTA) and trypsin, resuspended, and allowed to attach on fibronectin-coated chamber slides for Avidin-FITC staining. […] The D1 cell is a multipotential mesenchymal stem-like line that was isolated from bone marrow and shown to have the characteristics of osteoprogenitor cells. This cell line has been well established and used successfully in several in vitro and in vivo studies in our laboratory. Peptide binding to human bone marrow endothelial cells (HBME) and bovine aortic endothelial cells (BAEC) in culture was also tested using the same procedure.

Experiment [4] relates to Unicortical femoral defects. Nature of the experiment: Peptide-mediated osteogenesis in cortical bone defects (Example 8). Type of experiment: in vivo, Fisher 344 rats. As to conditions: for Histological appearance of repair tissue in the defect / Effectiveness at stimulating osteogenesis and cortical bone repair: 100 mM peptide in gelfoam, two weeks postoperatively; for Effectiveness at stimulating osteogenesis and cortical bone repair: versus gelfoam+PBS. The method in brief: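 Peptides (100 mM in a 1.5 × 2 mm gelfoam carrier) were placed in 1.5 mm unicortical femoral defects in Fisher 344 rats, with the contralateral defect given gelfoam+PBS as control, and harvested at two weeks. L7 was also dosed at 1, 5 and 20 mM, and 20 mM L7 was followed over 5, 10, 15 and 20 days.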

Where [5] appears, read: BALB/c mouse decalcified femur cryosections, biotinylated peptide and Avidin-FITC.
Setting [6] is: BALB/c mouse femur cryosections, biotinylated peptide.
Where [7] appears, read: Swiss Webster mouse decalcified femur cryosections, 10 mM biotinylated peptide, 1 hour, Avidin-FITC.
[8] abbreviates: Swiss Webster mouse femur cryosections, 10 mM biotinylated peptide.
Where [9] appears, read: biotinylated peptide, Avidin-FITC.

On to “ASN-SER-MET-ILE-ALA-HIS-ASN-LYS-THR-ARG-MET-HIS-GLY-GLY-GLY-SER (NSMIAHNKTRMHGGGS; listed as Homo sapiens) [Peptide L7]”, for which, in experiment [1] (setting [5]), the “Fluorescence detected in femur sections incubated with peptide” value (“Fluorescence detected” below) is on record as “Fluorescence was detected”. In experiment [1] (setting [6]), the “Cell shape preferentially recognized by peptide” value was “Cells that appeared morphologically elongated showed the highest fluorescence intensity” and the “Extent of marrow cells detected by fluorescence” value (“Extent of marrow cells detected” for short) is on record as “most of the cells were detectable but fluorescence intensity was variable”. Also, the “Localization of peptide binding: Bone/Marrow (tissue sections)” value in experiment [1] is listed as “✓”. Moreover, the “Fluorescence detected” value in experiment [1] (setting [7]) is recorded as “Fluorescence was detected”. In experiment [1] (setting [8]), the “Cell shape preferentially recognized by peptide” value is given as “Cells that appeared morphologically elongated showed the highest fluorescence intensity” and the “Extent of marrow cells detected” value is “most of the cells were detectable but fluorescence intensity was variable”. Further, the “Effect on adherent BAEC (Experiment 1)” value in experiment [2] was “the cells lifted and formed clusters that stained intensely”. Moreover, in the experiment on bone and bone marrow, the “PERCENT FREQUENCY” value is reported as 3.6% and the “PHAGE SEQUENCE FREQUENCY (number of times the sequence was found in a group of plaques)” value (shortened to “PHAGE SEQUENCE FREQUENCY”) is recorded as 1/28. Also, the “Localization of peptide binding: BAEC” value in experiment [3] is “✓”. In addition, in experiment [4] (20 mM, 5, 10, 15, and 20 days), the “New bone formation versus corresponding controls at every time point” value is given as “new bone formation was greater in the defects treated with peptide compared with the corresponding controls” and the “Time course of cortical bone repair” value is “Cortical bone regeneration increased with time”. In experiment [4], the “Histological appearance of repair tissue in the defect” value (“Histological appearance” below) is “considerable amounts of cortical bone in the defects”; the “Effectiveness at stimulating osteogenesis and cortical bone repair” value (“Effectiveness” for short) is “potentiate bone regeneration in vivo; also recorded: most effective at stimulating osteogenesis and cortical bone repair; also recorded: most effective peptides for osteogenesis and repair of cortical defects”. Moreover, in experiment [4] (1, 5, and 20 mM), the “Amount of bone that regenerated versus controls without peptide” value is “increased with all the concentrations of peptide, even at 1 mM and 5 mM compared with the controls without peptide”; the “Effect of peptide concentration on cortical bone regeneration” value is reported as “Osteogenesis was most pronounced with the highest concentration of peptide”.
As for “SER-GLY-HIS-GLN-LEU-LEU-LEU-ASN-LYS-MET-PRO-ASN-GLY-GLY-GLY-SER (SGHQLLLNKMPNGGGS; listed as Homo sapiens) [Peptide L13]”, in experiment [1], the “Localization of peptide binding: Bone/Marrow (tissue sections)” value was “✓”; the “Binding to rib and long bone growth plate sections” value was “significant binding to rib and long bone growth plate”. Moreover, in experiment [1] (setting [9]), the “Binding to bone and marrow in cryosections of mouse femur” value was “binds to areas of bone and marrow in cryosections of mouse femur”; the “Binding to fresh frozen sections of mouse rib” value was “binds to fresh frozen sections of mouse rib containing bone and marrow cells”. In addition, the “Effect on adherent BAEC (Experiment 1)” value in experiment [2] is reported as “no effect, with results similar to PBS”. Besides, in the experiment with bone and bone marrow, the “PERCENT FREQUENCY” value was found to be 23.3% and the “PHAGE SEQUENCE FREQUENCY” value is 7/30. In addition, the “Localization of peptide binding: BAEC” value in experiment [3] is recorded as “−”. In experiment [4], the “Histological appearance” value is “a considerable amount of gelfoam remaining in the defects, with thinner and more loosely organized cortical bone”; the “Effectiveness” value was “least effective for cortical bone repair”.
With “ASN-TYR-SER-HIS-LEU-ARG-VAL-LYS-LEU-PRO-THR-PRO-GLY-GLY-GLY-SER (NYSHLRVKLPTPGGGS; listed as Homo sapiens) [Peptide R1]”, the “Fluorescence detected” value in experiment [1] (setting [5]) was “Fluorescence was detected”. For the same substance, in experiment [1] (setting [6]), the “Cell shape preferentially recognized by peptide” value is “recognized the round cells preferentially” and the “Extent of marrow cells detected” value was “did not detect as many cells”. In experiment [1], the “Localization of peptide binding: Bone/Marrow (tissue sections)” value is “✓”; the “Binding to rib and long bone growth plate sections” value is “significant binding to rib and long bone growth plate”. In addition, the “Fluorescence detected” value in experiment [1] (setting [7]) is on record as “Fluorescence was detected”. In experiment [1] (setting [8]), the “Cell shape preferentially recognized by peptide” value is “recognized the round cells preferentially” and the “Extent of marrow cells detected” value is given as “did not detect as many cells”. Further, the “Effect on adherent BAEC (Experiment 1)” value in experiment [2] is “the cells had lifted completely and most of the cells disappeared from the surface of the slides, leaving a lot of cell debris”. Also, in the experiment with bone and bone marrow, the “PERCENT FREQUENCY” value is given as 24.1% and the “PHAGE SEQUENCE FREQUENCY” value is 7/29. Further, the “Localization of peptide binding: BAEC” value in experiment [3] is listed as “✓”. In experiment [4], the “Histological appearance” value is on record as “considerable amounts of cortical bone in the defects”; the “Effectiveness” value was “potentiate bone regeneration in vivo; also recorded: most effective at stimulating osteogenesis and cortical bone repair; also recorded: most effective peptides for osteogenesis and repair of cortical defects”.
